Source: patent US11026972B2, “Methods for generating macrophages with enhanced cancer phagocytosis” (Georgia State University Research Foundation, Inc., priority 2016, dated 2021)

Key:
Format in all cases: cell-based, mouse
[1] = system: cell surface LRP1 and CRT on PEMs; experiment: Macrophage cell surface CRT and LRP1 by FACS; details: after PMA treatment
Procedure: FIGS. 6A-6D include data related to our investigation of possible phagocytic receptors on macrophages for phagocytosing healthy self-cells. […] PEM (unstimulated) phagocytosis toward apoptotic B16 cells was tested in the presence of same antibodies and RAP as in A. Error bars are ±SEM. ***P<0.001 vs. phagocytosis in the presence of control IgG. […] PEMs, with or without (ctl.) treatment with LPS, IL-17, IL-6, or PMA, were labeled for cell surface LRP1 and CRT followed by FACS. Increased and decreased expressions were marked by arrows. […] Activated PEM phagocytosis toward RBCs was tested in the presence of antibodies against SR-A, Fc receptor Cd16/32 (10 μg/mL of each), inhibitors against SR-B (BLT1, 5 μM), dectin (laminarin, 100 μg/mL), complement (heparin, 40 U/mL), and antibody against Cd11b (10 μg/mL). Error bars are ±SEM. ***P<0.001 vs. the respective control without inhibition. Data presented in each panel represent at least three independent experiments with n≥4, if applicable.

[2] = system: PEMs; experiment: Cell signaling inhibitors on LPS/cytokine- or PMA-induced PEM phagocytic activation toward RBCs; details: PMA treatment
Procedure: FIGS. 5A-5H include data related to our experiments on the role of Syk in phagocytic activation. […] PEMs were treated with LPS and cytokines in the presence of various inhibitors. After washing, inhibitor-free macrophages were tested for phagocytosis toward RBCs. […] PEMs treated with LPS and activating cytokines, or together with IL-10, were tested for total Syk and phosphorylated Syk (Syk^pY, specific at Y519/520). FIG. 5D describes PMA-induced macrophages phagocytosis toward RBCs. WT and SIRPα^−/− PEMs were treated with PMA (37° C., 30 min) before testing phagocytosis toward RBCs. FIG. 5E is a schematic depiction of PKC-Syk-mediated macrophage phagocytic activation toward self. […] Left: Inhibition of Syk by piceatannol and R406 prevented PMA-induced phagocytic activation. […] Error bars are ±SEM. ***P<0.001 vs. the respective controls. […] LPS-treated WT PEMs were further briefly treated with pervanadate before testing for phagocytosis toward RBCs. Error bars are ±SEM. ***P<0.001 vs. the respective controls. […] Data presented in each panel represent at least three independent experiments with n≥4, if applicable.
(§1) Ex vivo macrophage phagocytosis: Mouse spleens were harvested and minced in cold HBSS followed by passing through nylon meshes. The spleen cells in suspensions were collected by centrifugation followed by washing. After lysis of RBC, splenocytes were plated in cell culture dishes in DMEM with 10% FBS and cultured for 2 h followed by removal of non-adherent cells. The adherent cells, ˜70% being macrophages as determined by anti-F4/80 staining, were tested for phagocytosis. For phagocytosis of RBC or other tissue cells, targeted cells were labeled with CFSE prior to addition into the macrophage-containing wells. Macrophages and target cells, at a ratio of 1:5-10 for RBC or 1:1-2 for other cells, were co-incubated for 30 min at 37° C. followed by gently washing. Macrophage phagocytosis of target cells was then analyzed by fluorescence microscopy and/or by FACS. […] Alternatively, the freshly isolated splenocytes in suspension were incubated with CFSE-labeled RBC and other phagocytic targets for 30 min at 37° C. Macrophage phagocytosis was then determined by FACS after labeling macrophages with anti-F4/80. To test phagocytosis of apoptotic cells, B16 cells were irradiated by UV for 150 seconds at 50 J/m^2 strength. Apoptosis was analyzed at 2, 4, 6, 8 and 18 h post UV irradiation by labeling of the cells with anti-phosphatidylserine (PS) antibody (data not shown) or FITC-conjugated annexin V (data not shown). Cells that were confirmed to be apoptotic were trypsinized, labeled with CFSE, and then co-incubated with macrophages for 30 min at 37° C. After gentle washing, phagocytosis was analyzed by fluorescence microscopy and/or FACS. To test phagocytosis of bacteria and the fungal product zymosan, AlexaFluor-conjugated E.coli strain […] (2 μl suspension, ˜2 μg) or zymosan bioparticles (1 μl suspension, ˜2 μg) (both from Invitrogen) were incubated with macrophages for 30 min followed by washing and analyses. Similar procedures were performed to test phagocytosis of macrophages from various sources. To obtain peritoneal macrophages, peritonea of mice were lavaged by sterile PBS followed by centrifugation to collect cells. Cells suspended in DMEM with 10% FBS were then plated in cell culture dishes and incubated for 2 h at 37° C. followed by removal of non-adherent cells. To produce bone marrow-derived macrophages, freshly isolated bone marrow cells were culture in macrophage colony-stimulating factor (MCSF, ˜10 ng/ml)-containing MEM with 10% FBS for five-six days and macrophage differentiation was confirmed by anti-F4/80 staining.

[3] = system: splenic macrophages, PEMs and BMDMs; experiment: Ex vivo macrophage phagocytosis toward RBCs and other self-cells after activation
Summary of the method: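 Mouse splenic or peritoneal macrophages (2 h adherent selection) or BMDMs (M-CSF ~10 ng/ml, 5-6 days) were co-incubated 30 min at 37 °C with CFSE-labelled RBCs (1:5-10) or other cells (1:1-2). Uptake was scored by fluorescence microscopy and/or FACS with anti-F4/80 or anti-CD11b macrophage labelling.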

[4] = system: SIRPα; experiment: SIRPα immunoprecipitation and WB detection of SIRPα ITIM phosphorylation and SHP-1 association; details: PMA treatment
Procedure: FIGS. 4A-4E include data related to our experiments on macrophage phagocytic plasticity. FIG. 4A is a panel of illustrative line graphs showing that IL-10 inhibits macrophage phagocytosis toward “self.” PEMs were treated with LPS and activating cytokines along with various concentrations of IL-10 before testing their ability to phagocytose RBCs. FIG. 4B illustrates the phagocytic plasticity of WT red pulp macrophages. […] Treatments of cultured macrophages with LPS and IL-17 re-elicited their phagocytosis toward RBCs. […] Error bars are ±SEM. ***P<0.001 vs. freshly isolated splenic macrophages. FIG. 4D includes microscopic images of RBC phagocytosis by LPS- and IL-17-treated splenic macrophages. […] WT PEMs treated with LPS or IL-17 were further treated with Cd47^+ RBCs or Cd47-AP (10 min, 37° C.) followed by cell lysis, SIRPα immunoprecipitation, and WB detection of SIRPα phosphorylation (SIRPα^pY) and SHP-1 association. Data presented in each panel represent at least three independent experiments with n≥4, if applicable.
FIGS. 5A-5H include data related to our experiments on the role of Syk in phagocytic activation. […] PEMs were treated with LPS and cytokines in the presence of various inhibitors. After washing, inhibitor-free macrophages were tested for phagocytosis toward RBCs. […] PEMs treated with LPS and activating cytokines, or together with IL-10, were tested for total Syk and phosphorylated Syk (Syk^pY, specific at Y519/520). FIG. 5D describes PMA-induced macrophages phagocytosis toward RBCs. WT and SIRPα^−/− PEMs were treated with PMA (37° C., 30 min) before testing phagocytosis toward RBCs. FIG. 5E is a schematic depiction of PKC-Syk-mediated macrophage phagocytic activation toward self. […] Left: Inhibition of Syk by piceatannol and R406 prevented PMA-induced phagocytic activation. […] Error bars are ±SEM. ***P<0.001 vs. the respective controls. […] LPS-treated WT PEMs were further briefly treated with pervanadate before testing for phagocytosis toward RBCs. Error bars are ±SEM. ***P<0.001 vs. the respective controls. […]

[5] = system: PEMs; experiment: Activated PEM phagocytosis toward RBCs in the presence of antibodies/inhibitors against phagocytic receptors; details: anti-CRT 10 μg/mL each; anti-LRP1 20 μg/mL; RAP 20 μg/mL
Procedure: (§2) FIGS. 6A-6D include data related to our investigation of possible phagocytic receptors on macrophages for phagocytosing healthy self-cells. […] PEMs, with or without (ctl.) treatment with LPS, IL-17, IL-6, or PMA, were labeled for cell surface LRP1 and CRT followed by FACS. […] Activated PEM phagocytosis toward RBCs was tested in the presence of antibodies against SR-A, Fc receptor Cd16/32 (10 μg/mL of each), inhibitors against SR-B (BLT1, 5 μM), dectin (laminarin, 100 μg/mL), complement (heparin, 40 U/mL), and antibody against Cd11b (10 μg/mL). […] Data presented in each panel represent at least three independent experiments with n≥4, if applicable.
as §1, with “To obtain peritoneal macrophages, peritonea of mice were lavaged by sterile PBS followed by centrifugation to collect cells. Cells suspended in DMEM with 10% FBS were then plated in cell culture dishes and incubated for 2 h at 37° C. followed by removal of non-adherent cells. To produce bone marrow-derived macrophages, freshly isolated bone marrow cells were culture in macrophage colony-stimulating factor (MCSF, ˜10 ng/ml)-containing MEM with 10% FBS for five-six days and macrophage differentiation was confirmed by anti-F4/80 staining.” left out

[6] = system: PEMs; experiment: PEM (unstimulated) phagocytosis toward apoptotic B16 cells; details: same antibodies and RAP as for RBCs
Procedure: as §2
Ex vivo macrophage phagocytosis: Mouse spleens were harvested and minced in cold HBSS followed by passing through nylon meshes. […] The adherent cells, ˜70% being macrophages as determined by anti-F4/80 staining, were tested for phagocytosis. […] Macrophage phagocytosis of target cells was then analyzed by fluorescence microscopy and/or by FACS. […] Macrophage phagocytosis was then determined by FACS after labeling macrophages with anti-F4/80. […] Apoptosis was analyzed at 2, 4, 6, 8 and 18 h post UV irradiation by labeling of the cells with anti-phosphatidylserine (PS) antibody (data not shown) or FITC-conjugated annexin V (data not shown). […] After gentle washing, phagocytosis was analyzed by fluorescence microscopy and/or FACS. […]

| LPS/cytokine-induced PEM phagocytosis toward RBCs [5] | Compound | reduction of CRT and LRP1 expression on PEMs [1] [%] | rescue of Syk inhibition-repressed PEM phagocytic activation by LPS [2] | time to elicitation of phagocytosis [3] [min] | phagocytic target discrimination ([3]; PMA-treated WT PEMs) | PEM phagocytosis toward RBCs ([3]; low nanomolar concentrations, 37° C., 30 min) | SIRPα expression, SIRPα ITIM phosphorylation and SHP-1 association [4] | phagocytosis toward apoptotic cells [6] |
| --- | --- | --- | --- | --- | --- | --- | --- | --- |
|  | CCCCCCCCCCCCCC(=O)O[C@@H]1[C@@H](C)[C@@]2(O)[C@@H](C=C(CO)C[C@]3(O)C(=O)C(C)=C[C@@H]23)[C@@H]2C(C)(C)[C@]12OC(C)=O [PMA, phorbol 12-myristate 13-acetate] | ~50 | failed to rescue | < 30 | aggressively phagocytosed both CD47^− and CD47^+ RBCs | instantly initiated PEM to phagocytose RBCs | neither reduced SIRPα expression nor affected SIRPα ITIM phosphorylation and SHP-1 association |  |
| failed to inhibit | RAP: LRP1 receptor-associated protein, which inhibits CRT-LRP1 binding |  |  |  |  |  |  | significantly inhibited |
